In PubChem BioAssay (NCI) one finds TGI data, which are given here for 14 compounds.

Test systems include CCRF-CEM leukemia; HCC-2998 colon; T-47D breast; K-562 leukemia; OVCAR-8 ovarian; HOP-92 NSCLC; CAKI-1 renal; MDA-N; SK-OV-3 ovarian; U251 CNS.
Common to all, as to experiment: NCI anticancer screen, dose series, 48 h

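Step 1: Grow cells in 96-well plates. Step 2: Expose to compound for 48 hours at 5 concentrations. Step 3: Interpolate endpoints linearly; if unreached, use highest concentration. TGI is the concentration that stops growth completely.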

Regarding `BrC1=C(Br)C2(SCCS2)[C@H]2C[C@@H]1c1ccccc12`, the TGI in the test on CCRF-CEM leukemia is > 100 µM; in the test on HCC-2998 colon, > 89.6 µM; in the test on T-47D breast it was > 100 µM; in the test with K-562 leukemia, > 100 µM; with OVCAR-8 ovarian it was > 100 µM; with HOP-92 NSCLC, > 100 µM. Besides, the TGI is > 100 µM in the test on CAKI-1 renal, > 26.2 µM in the test on MDA-N, > 100 µM in the test with SK-OV-3 ovarian and > 100 µM in the test with U251 CNS.
For the compound `CCOC(=O)NC(Nc1ccc(C)cc1)(C(F)(F)F)C(F)(F)F`, the TGI with CCRF-CEM leukemia, in the test with HCC-2998 colon, with T-47D breast, in the test with K-562 leukemia, in the test on OVCAR-8 ovarian and in the test with HOP-92 NSCLC was > 100 µM throughout. Further, the TGI with MDA-N, with SK-OV-3 ovarian and in the test with U251 CNS was > 100 µM in each case.
As to `CC(C)(C)OC(=O)NC1CCCCC1NC(=O)C(=O)NC1CCCCC1NC(=O)OC(C)(C)C` (stereo not drawn), the TGI is > 100 µM with CCRF-CEM leukemia; > 100 µM in the test on HCC-2998 colon; > 100 µM in the test with T-47D breast; > 100 µM with K-562 leukemia; > 100 µM in the test with OVCAR-8 ovarian; 45 µM in the test on HOP-92 NSCLC. Besides, the TGI in the test with CAKI-1 renal, with MDA-N, in the test with SK-OV-3 ovarian and with U251 CNS was > 100 µM throughout.
As to `O=S(=O)(O)CCCc1cccc2ccccc12`, the TGI with CCRF-CEM leukemia, in the test with HCC-2998 colon, in the test on T-47D breast, in the test with K-562 leukemia, in the test on OVCAR-8 ovarian and with HOP-92 NSCLC was > 100 µM in each case. Also, the TGI in the test on CAKI-1 renal, with MDA-N, in the test with SK-OV-3 ovarian and in the test on U251 CNS was > 100 µM in each case.
On to `C[C@H]1[C@H]2[C@H]3CC[C@@H]4[C@@]5(C)CC[C@H](O)C(C)(C)[C@@H]5CC[C@@]4(C)[C@]3(C)C[C@H](O)[C@@]2(C)C[C@H]2O[C@]21C`, for which the TGI in the test on CCRF-CEM leukemia is > 100 µM; in the test on HCC-2998 colon, 37.4 µM; in the test on T-47D breast, 46.8 µM; with OVCAR-8 ovarian it was 48.2 µM; in the test with HOP-92 NSCLC it was 56.2 µM; in the test with CAKI-1 renal, 69.8 µM. Further, the TGI amounted to 46.5 µM with MDA-N, 39.3 µM in the test with SK-OV-3 ovarian and 33.7 µM with U251 CNS.
Take `O=C(/C=C/c1ccccc1)Oc1cccc(O)c1`: the TGI in the test on HCC-2998 colon, in the test on T-47D breast, in the test on OVCAR-8 ovarian, in the test on HOP-92 NSCLC, in the test on CAKI-1 renal and in the test on MDA-N was > 100 µM in each case. Moreover, the TGI in the test with SK-OV-3 ovarian and with U251 CNS was > 100 µM in each case.
Turning to `O=C(N/N=C(\c1ccccc1)c1ccccn1)NC1CCCCC1`, the TGI with CCRF-CEM leukemia, with HCC-2998 colon, in the test on T-47D breast, with K-562 leukemia, in the test on HOP-92 NSCLC and with CAKI-1 renal was > 100 µM each time. The TGI in the test with MDA-N, in the test on SK-OV-3 ovarian and in the test with U251 CNS was > 100 µM throughout.
With `CC1(C)[C@@H](Cn2ccc(=O)[nH]c2=O)CC[C@@]1(C)CO`, the TGI in the test with CCRF-CEM leukemia, in the test with HCC-2998 colon, in the test on T-47D breast, with K-562 leukemia, in the test on HOP-92 NSCLC and with CAKI-1 renal was > 100 µM throughout. For the same compound, the TGI in the test with MDA-N, in the test with SK-OV-3 ovarian and in the test on U251 CNS was > 100 µM in each case.
Regarding `Nc1c(C(=O)O)nnc2ccc(Cl)cc12`, the TGI in the test with CCRF-CEM leukemia, in the test on HCC-2998 colon, with T-47D breast, in the test with K-562 leukemia, in the test on OVCAR-8 ovarian and with CAKI-1 renal was > 100 µM each time. In addition, the TGI in the test with MDA-N, in the test on SK-OV-3 ovarian and in the test on U251 CNS was > 100 µM each time.
As to `O=C1c2ccccc2C(=O)c2c(NCC(O)CO)ccc(NCC(O)CO)c21` (stereo not drawn), the TGI with CCRF-CEM leukemia, in the test on HCC-2998 colon, in the test with T-47D breast, in the test with K-562 leukemia, with OVCAR-8 ovarian and in the test on CAKI-1 renal was > 100 µM throughout. Further, the TGI with MDA-N, in the test with SK-OV-3 ovarian and in the test with U251 CNS was > 100 µM throughout.
With `CN=C(n1ccnc1)n1ccnc1`, the TGI in the test on CCRF-CEM leukemia, with HCC-2998 colon, in the test on T-47D breast, in the test with K-562 leukemia, in the test with OVCAR-8 ovarian and with CAKI-1 renal was > 100 µM in each case. The TGI with MDA-N, in the test on SK-OV-3 ovarian and with U251 CNS was > 100 µM in each case.
As to `N#C[C@H](c1ccccn1)c1nc2ccccc2nc1Cl`, the TGI with CCRF-CEM leukemia, with HCC-2998 colon, with T-47D breast, in the test with OVCAR-8 ovarian, in the test on HOP-92 NSCLC and with CAKI-1 renal was > 100 µM in each case. Moreover, the TGI in the test on MDA-N, in the test on SK-OV-3 ovarian and with U251 CNS was > 100 µM throughout.
On to `NC(N)=NS(=O)(=O)c1ccc(NNc2c3ccccc3nc3c(C(=O)Nc4ccc(S(=O)(=O)Nc5ncccn5)cc4)cccc23)cc1`, for which the TGI in the test on CCRF-CEM leukemia, in the test with HCC-2998 colon, in the test on T-47D breast, with K-562 leukemia, with OVCAR-8 ovarian and with HOP-92 NSCLC was > 100 µM throughout. For the same compound, the TGI with CAKI-1 renal, in the test with MDA-N and in the test on U251 CNS was > 100 µM each time.
For the compound `O=C(Nc1ccccc1)c1cc(S(=O)(=O)NC2=NC(c3ccccc3)c3cc(Cl)ccc3N2)c(SSc2cc(Cl)c(C(=O)Nc3ccccc3)cc2S(=O)(=O)NC2=NC(c3ccccc3)c3cc(Cl)ccc3N2)cc1Cl` (stereo not drawn), the TGI in the test with HCC-2998 colon, in the test on T-47D breast, in the test with K-562 leukemia, with OVCAR-8 ovarian, with HOP-92 NSCLC and in the test on CAKI-1 renal was > 100 µM each time. Moreover, the TGI in the test on MDA-N, with SK-OV-3 ovarian and in the test with U251 CNS was > 100 µM in each case.
